Laboratory results taken from patent US8338337B2, “Substituted pyridines having a herbicidal effect” (BASF SE, priority 2008, dated 2012).

Key:
ABUTH = assay: greenhouse post-emergence herbicidal test; format: in vivo, Abutilon theophrasti; settings: 3.0 kg/ha, scale 0 to 100
Source text: The seeds of the test plants were sown separately for each species. For the post-emergence treatment, the test plants were first grown to a height of 3 to 15 cm, depending on the plant habit, and then treated with the active compounds which had been suspended or emulsified in water. For this purpose, the test plants were either sown directly and grown in the same containers, or they were first grown separately as seedlings and transplanted into the test containers a few days prior to treatment. Depending on the species, the plants were kept at 10-25° C. or 20-35° C. The test period extended over 2 to 4 weeks. During this time, the plants were tended, and their response to the individual treatments was evaluated. Evaluation was carried out using a scale from 0 to 100. 100 means no emergence of the plants, or complete destruction of at least the aerial moieties, and 0 means no damage, or normal course of growth. A good herbicidal activity is given at values of at least 70 and a very good herbicidal activity is given at values of at least 85. [table]

AMARE = assay: greenhouse pre-emergence herbicidal test; format: in vivo, Amaranthus retroflexus; settings: 0.5 kg/ha, scale 0 to 100
Source text: The seeds of the test plants were sown separately for each species. For the pre-emergence treatment, the active compounds, which had been suspended or emulsified in water, were applied directly after sowing by means of finely distributing nozzles. The containers were irrigated gently to promote germination and growth and subsequently covered with transparent plastic hoods until the plants had rooted. This cover caused uniform germination of the test plants, unless this has been impaired by the active compounds. Depending on the species, the plants were kept at 10-25° C. or 20-35° C. The test period extended over 2 to 4 weeks. During this time, the plants were tended, and their response to the individual treatments was evaluated. Evaluation was carried out using a scale from 0 to 100. 100 means no emergence of the plants, or complete destruction of at least the aerial moieties, and 0 means no damage, or normal course of growth. A good herbicidal activity is given at values of at least 70 and a very good herbicidal activity is given at values of at least 85. [table]

Compound | herbicidal activity against ABUTH (ABUTH) | herbicidal activity against AMARE (AMARE)
O=c1oc2ccc(O)nc2c(O)c1-c1ccccc1C(F)(F)F [I-23] | good (A good herbicidal activity is given at values of at least 70) | –
O=c1oc2cccnc2c(O)c1-c1cc(C(F)(F)F)ccc1C(F)(F)F [I-35] | – | very good (a very good herbicidal activity is given at values of at least 85)
